Paper PMC8078777 (PLoS Pathogens, 2021)
Values after ≈ are worked out from the molar mass of the structure shown. Values joined by “and” are separate entries in the source; they are usually repeats but may differ in a detail not shown here. Equal values may be shown once. “Also recorded” adds a separate entry of the source.

Assays:
Caco-2 cells = assay: Caco-2 cell toxicity, MTT assay; format: cell-based, human; details: overnight
Procedure: (§1) Caco-2 cells were seeded onto microtiter 96-well plates at a density of 70,000 cells/mL in 50 µL of minimal essential medium (Sigma) supplemented with 10% fetal bovine serum (Sigma), 1% L-glutamine (Gibco), and 1% non-essential amino acids (Sigma). Cells were incubated for two days at 37 °C in a humidified atmosphere containing 5% CO2. Then the cells were treated with the selected compounds at different concentrations: 6G7 and 6C3 were added at concentrations of 0.0625, 0.125, 0.25, 0.5, 1, and 2 mM, and 7C8 at concentrations of 3.125, 6.25, 12.5, 25, 50, and 100 μM. The final DMSO concentration in the medium was adjusted as indicated by the solubility of individual compounds and was reduced proportionally with serial dilutions. The highest DMSO concentration in assays was 5%. After overnight incubation, the cell viability was assessed by the MTT assay. Briefly, 3-(4,5-dimethylthiazol-2-yl)-2,5-diphenyltetrazolium bromide (MTT) reagent was added to each well at a final concentration of 1 mg/mL and incubated for 3 h. The medium was then removed, and the formazan product of living cells was dissolved in DMSO. The absorbance was measured at 570 nm with a Fluostar Galaxy microplate reader. Three independent experiments with the compounds 6C3 and 7C8 and four independent experiments with the compound 6G7 were performed.

NLPPya [1] = biological target: T1, NLPPya (Pythium aphanidermatum, UniProt Q9SPD4); assay: Tobacco leaf infiltration assay, NLPPya-induced necrosis/chlorosis; format: in vivo; details: 24 h; for effect on NLPPya-induced necrosis: 200 nM NLPPya, tobacco leaves
Procedure: Tobacco plants (Nicotiana tabacum ‘White Burley’) were grown in a controlled growth chamber with supplementary light (70−90 μMm^-2s^-1) and a 16 h photoperiod with 22°C day and 20°C night temperatures at 75±2% humidity. Using blunt-ended syringe pressure infiltration, 100 μL of solution ([…] of the compounds) was infiltrated abaxially into the leaves of 5−7-week-old tobacco plants (Nicotiana tabacum ‘White Burley’). 5% DMSO, NLP solutions, and appropriate compound dilutions were used as controls. The area on the upper side of the leaf, which was infiltrated with solutions, was labeled and checked for the presence of necrosis after 24 h. […] The level of leaf chlorosis was estimated using ImageJ software by calculating the ratio of the chlorotic area to the whole infiltrated area, both measured in squared pixels. Each value represents the average of sixteen infiltrations.

tobacco leaves = assay: Tobacco leaf infiltration assay, compounds alone; format: in vivo, Nicotiana tabacum; details: 1 mM compound in 5% DMSO, 24 h
Procedure: Tobacco plants (Nicotiana tabacum ‘White Burley’) were grown in a controlled growth chamber with supplementary light (70−90 μMm^-2s^-1) and a 16 h photoperiod with 22°C day and 20°C night temperatures at 75±2% humidity. Using blunt-ended syringe pressure infiltration, 100 μL of solution (either 400 nM NLPPp or 250 nM NLPPya in ultrapure water in the absence or presence of the compounds) was infiltrated abaxially into the leaves of 5−7-week-old tobacco plants (Nicotiana tabacum ‘White Burley’). 5% DMSO, NLP solutions, and appropriate compound dilutions were used as controls. The area on the upper side of the leaf, which was infiltrated with solutions, was labeled and checked for the presence of necrosis after 24 h. To thoroughly assess the effect of compound 6G7 on the level of leaf necrosis/chlorosis, 50 μL of 100 nM NLPPya solution without/with 500 μM or 1 mM 6G7 in 20 mM MES, 150 mM NaCl, pH 5.8, containing 10% DMSO was infiltrated. The level of leaf chlorosis was estimated using ImageJ software by calculating the ratio of the chlorotic area to the whole infiltrated area, both measured in squared pixels. Each value represents the average of sixteen infiltrations.

NLPPya [2] = biological target: T1, NLPPya; assay: Surface plasmon resonance binding to immobilized NLPPya; details: for SPR binding to NLPPya (in words): sensor-chip-immobilized NLPPya; for Kd: SPR, steady-state affinity model, 50 mM MES, 150 mM NaCl, 5% DMSO, pH 5.8
Procedure: Biacore T100 equipped with the Series S Sensor chip CM5 (GE Healthcare) was used to assess the binding of compounds to NLPPya and NLPPp. The proteins were covalently immobilized to the chip using amine coupling. The surface was activated with a 10 min injection of a mixture of 1-ethyl-3-(3-dimethylaminopropyl) carbodiimide hydrochloride / N-hydroxysuccinimide (1:1). NLPs were immobilized on the second flow cell. The first flow cell was left empty to control any nonspecific compound binding to the dextran matrix. […] In total, 587 in-house compounds (Faculty of Pharmacy, University of Ljubljana) were dissolved in DMSO as stock solutions at a concentration of 10 mM and diluted in 50 mM 2-(N-morpholino)ethanesulfonic acid (MES) and 150 mM NaCl to a final concentration of 5% DMSO (pH 5.8) prior to SPR experiments. After washing the sensor surface with running buffer (50 mM MES, 150 mM NaCl, 5% DMSO, pH 5.8), the compounds were tested at two different concentrations: 20 and 200 μM. Certain compounds were tested at lower concentrations owing to their lower solubility in the running buffer. Each compound was injected for 1 min at a flow rate of 30 μL/min, and dissociation was monitored for another minute. […] In the next set of experiments, 67 selected compounds were titrated. The samples were injected for 1 min at a flow rate of 30 μL/min, and dissociation was monitored for another minute. The samples were typically injected at the following concentrations: 0, 12.5, 25, 50, 100, and 200 μM. At the end of each concentration series, 25 μM of compound was injected again to control the activity of the surface. Regeneration between individual injections was not needed for molecules that completely dissociated from the protein. When complete dissociation was not achieved, short pulses of 0.1% SDS were included. The obtained sensorgrams were analyzed using the Biacore T100 Evaluation software, and the steady-state affinity binding model was used to calculate affinity constants.

Phytophthora infestans = format: in vivo; details: for P. infestans infection spots on potato leaves (size and coloring): 1 mM compound applied with zoospores, 4 days; for P. infestans growth on potato leaves by real-time PCR: 1 mM compound, 4 days after infection, vs control compound 6E11
NLPPya [3] = biological target: T1, NLPPya; assay: STD-NMR binding to NLPPya; details: 25°C
Procedure: STD-NMR experiments were performed with 8 μM NLPPya. A pseudo-2D version of a STD-NMR pulse sequence with DPFGSE water suppression for the interleave acquisition of on- (δ 0.2 ppm) and off-resonance (δ 40 ppm) spectra was used at 25°C with 512 scans. A 30 ms spin-lock filter was used for protein signal suppression. The STD spectra were obtained by subtracting the saturated spectra from the reference spectra. The STD effect was calculated by (I0-Isat)/I0, where I0 is the signal intensity in the off-resonance spectrum, Isat is the signal intensity in the on-resonance spectrum, and I0-Isat is the intensity of the STD-NMR spectrum. Appropriate control experiments in the absence of protein were performed to assure the absence of direct irradiation of the ligand. In the titration study, five STD experiments were performed with varying ligand concentrations (40, 80, 240, 400, and 560 μM).
The STD amplification factor (STD-AF) was determined according to Eq 1, where [L] is the ligand concentration, and [P] is the NLPPya concentration.
The hyperbolic behavior of the curves obtained from plotting STD-AF as a function of ligand concentration is appropriately described by Eq 2, where STD-AF is the STD amplification factor, αSTD is the maximum amplification factor, [L] is the ligand concentration, and KD is the dissociation constant. […]

NLPPya [4] = biological target: T1, NLPPya; assay: Ion leakage from tobacco leaf disks induced by NLPPya; format: in vivo; details: 100 nM NLPPya, conductivity after 2 h
Procedure: Tobacco leaves were infiltrated with 100 nM NLPPya in 20 mM MES, 150 mM NaCl pH 5.8, preincubated for 10 min with 500 μM or 1 mM 6G7. Final concentration of DMSO in solution was 10%. After 10 min incubation, 2 leaf disks were punched out (Ø 6 mm) and transferred to 2 mL of deionized distilled water. After 30 min of shaking at 430 rpm, leaf disks were transferred to 1 mL of fresh deionized distilled water. Conductivity was measured after 2 h using SevenCompact Cond meter (Mettler Toledo). Mock treated samples were discs from leaves infiltrated with buffer containing 10% DMSO or 6G7. Each value represents the average of 12–18 independent experiments.

[5] = Caco-2 cell toxicity, MTT assay; format: cell-based, human; details: human, Caco-2, 12.5 μM, overnight, read-out: Caco-2 cell viability, of the untreated control
Procedure: as §1

[6] = Solubility in SPR running buffer; format: physicochemical; details: SPR running buffer containing 5% DMSO

T1 sequence (Q9SPD4 18-234 limits assumed): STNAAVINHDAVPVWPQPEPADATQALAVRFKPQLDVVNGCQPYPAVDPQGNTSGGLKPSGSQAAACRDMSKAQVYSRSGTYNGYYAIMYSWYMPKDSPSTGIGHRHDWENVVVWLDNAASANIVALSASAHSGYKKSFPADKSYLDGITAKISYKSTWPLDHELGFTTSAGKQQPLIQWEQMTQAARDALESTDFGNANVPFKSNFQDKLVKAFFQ

## Cc1ccc2occ(C3N[C@H](C(=O)O)CS3)c(=O)c2c1 (stereo partly drawn) [6C3, (4R)-2-(6-methyl-4-oxo-4H-chromen-3-yl)thiazolidine-4-carboxylic acid]
Caco-2 cells; 1 mM
  reduction of Caco-2 cell viability: 8%
Caco-2 cells; 2 mM
  reduction of Caco-2 cell viability: 15%
Caco-2 cells; concentrations below 500 μM
  effect on Caco-2 cell viability: did not affect cell viability
NLPPya [1]; 1 mM compound
  effect on NLPPya-induced necrosis: inhibited
Tobacco leaves
  toxic effects of compound alone on leaf tissue: did not affect the plant tissue
NLPPya [2]
  SPR binding to NLPPya (in words): stable binding
Phytophthora infestans
  P. infestans infection spots on potato leaves (size and coloring): largely reduced or disappeared
  P. infestans growth on potato leaves by real-time PCR: significantly reduced

## Cc1oc([C@@H](O)[C@H](O)[C@H](O)CO)cc1C(=O)O [6E11, 2-methyl-5-((1S,2R,3R)-1,2,3,4-tetrahydroxybutyl)furan-3-carboxylic acid, reference compound]
Tobacco leaves
  toxic effects of compound alone on leaf tissue: did not affect the plant tissue
NLPPya [2]
  SPR binding to NLPPya (in words): did not bind

## COc1ccc(Nc2ccccc2C(=O)O)cc1 [6G7, 2-((4-methoxyphenyl)amino)benzoic acid]
NLPPya [3]; 400 μM ligand, 1:50 receptor-to-ligand ratio
  STD signals in the presence of NLPPya: clear STD signals
NLPPya [3]; STD-NMR titration, 8 μM NLPPya
  Kd: 150 ± 7 µM
Caco-2 cells; up to concentrations approximately 10 times higher than its KD for NLPs
  effect on Caco-2 cell viability: did not affect cell viability; also recorded: non-toxic
NLPPya [1]; 100 nM NLPPya, 1 mM compound, buffer with 10% DMSO
  NLPPya-induced leaf chlorosis: efficiently reduced
NLPPya [1]; 1 mM compound
  effect on NLPPya-induced necrosis: inhibited
Tobacco leaves
  toxic effects of compound alone on leaf tissue: did not affect the plant tissue
NLPPya [2]
  Kd: 131 ± 36.4 µM
NLPPya [4]; 500 μM compound
  ion leakage induced by NLPPya from tobacco cells: efficiently inhibit
NLPPya [4]; 1 mM compound
  ion leakage induced by NLPPya from tobacco cells: efficiently inhibit
Phytophthora infestans
  P. infestans infection spots on potato leaves (size and coloring): largely reduced or disappeared
  P. infestans growth on potato leaves by real-time PCR: significantly reduced; also recorded: significantly inhibited

## O=C(Cc1c[nH]c2ccccc12)Nc1ccccc1CCOC(=O)Cc1c[nH]c2ccccc12 [7C8, 2-(2-(1H-indol-3-yl)acetamido)phenethyl 2-(1H-indol-3-yl)acetate]
Caco-2 cells; 3.125 μM
  reduction of Caco-2 cell viability: 35%
[5]
  viability at 12.5 µM: 20%
NLPPya [1]; 200 μM compound
  effect on NLPPya-induced necrosis: inhibited
Tobacco leaves
  toxic effects of compound alone on leaf tissue: did not affect the plant tissue
[6]
  solubility limit: poorly soluble at concentrations of >180
[6]; pH 5.8, aqueous with cosolvent or surfactant or cyclodextrin, kinetic from dmso stock, read-out: solubility limit
  solubility: ~180 µM (≈ 81.3 µg/mL)
NLPPya [2]
  Kd: 52.8 µM and ~50 µM
Phytophthora infestans
  P. infestans infection spots on potato leaves (size and coloring): largely reduced or disappeared
  P. infestans growth on potato leaves by real-time PCR: significantly reduced
